Reference: patent publication US5457106A, “Pyridine derivatives, their production and use” (Takeda Chemical Industries, Ltd., priority 1991, dated 1995)
Structures can show the parent of a compound that is named as a salt.

Tests used:
cyclooxygenase = target: T1, cyclooxygenase (Rattus norvegicus, UniProt Q63921); test: Cyclooxygenase inhibitory activity (HHT formation from arachidonic acid in rat platelet-rich plasma); format: cell-based, rat (Jcl:wistar)
T1 construct: from tissue; host or cells: platelets in platelet-rich plasma from rat abdominal aorta blood (Jcl:wistar, male)
T1 sequence (Q63921 27-602): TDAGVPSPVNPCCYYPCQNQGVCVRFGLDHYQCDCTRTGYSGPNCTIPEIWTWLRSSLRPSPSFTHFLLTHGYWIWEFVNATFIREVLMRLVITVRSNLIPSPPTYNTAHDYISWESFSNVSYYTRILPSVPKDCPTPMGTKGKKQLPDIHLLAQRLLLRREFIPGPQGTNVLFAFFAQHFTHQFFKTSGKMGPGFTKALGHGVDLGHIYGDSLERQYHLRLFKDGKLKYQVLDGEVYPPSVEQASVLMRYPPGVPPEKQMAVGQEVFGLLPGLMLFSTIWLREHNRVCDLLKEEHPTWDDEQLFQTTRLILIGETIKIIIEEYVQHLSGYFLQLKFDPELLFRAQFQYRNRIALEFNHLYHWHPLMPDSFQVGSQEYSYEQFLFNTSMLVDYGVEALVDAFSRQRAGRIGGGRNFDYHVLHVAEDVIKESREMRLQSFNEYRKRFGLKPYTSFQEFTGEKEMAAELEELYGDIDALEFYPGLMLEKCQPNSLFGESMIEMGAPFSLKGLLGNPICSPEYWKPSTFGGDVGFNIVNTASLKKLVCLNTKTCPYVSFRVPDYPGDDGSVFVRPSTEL

[1] = tested on: Rat carrageenin pedal edema; test: Rat carrageenin pedal edema inhibitory activity; format: in vivo, rat (Jcl: SD); details: 50 mg/kg, orally, 3 hours after carrageenin; for inhibition in vivo at 50 mg/kg: Rattus norvegicus, po, 3 h, read-out: Inhibitory percentage (carrageenin pedal edema)
Procedure: Rat Carrageenin Pedal Edema Inhibitory Activity A Jcl: SD male rat (6 weeks old, weight 160-220 g) was used. After the mesurement of the volume of the dexter hind limb foot pad, a test compound suspended in 5% gum arabic solution was administered orally. Immediately after the administration, water was further administered orally so that the total administration volume of liquid became 5 ml/rat. After one hour, 0.05 ml of 1% carrageenin suspension in physiological saline was injected subcutaneously in the foot pad to induce edema [Winter, […]. and Nuss, G. W.: Proc. Soc. exp. […] Three hours after injection of carrageenin, the volume of the dexter limb was measured, and the edema volume was calculated by the difference between the volume after injection and the volume prior to injection.

[2] = tested on: Mouse phenylquinone writhing; test: Mouse phenylquinone writhing inhibitory activity; format: in vivo, mouse (Slc: ICR); details: Mus musculus, po, 20 min, 50 mg/kg, orally; read-out: Inhibitory percentage (phenylquinone writhing)
Procedure: Mouse Phenylquinone Writhing Inhibitory Activity A Slc: ICR male mouse (4 weeks, weight 17 to 24 g) was used. A test compound suspended in 5% gum arabic solution was administered orally. After 30 minutes, 0.1 ml/10 g body weight of 0.02% phenylquinone solution in water (dissolved by the aid of 5% ethanol) was injected intraperitoneally, and writhing and stretching responses of individual animals were measured for 20 minutes [Siegmund, E., Cadmus, R. and Lu, G.; Proc. Soc. exp. Biol. Med. 95, (1957)].

[3] = tested on: brewer's yeast induced pyrexia; test: Antipyretic activity (brewer's yeast induced pyrexia); format: in vivo, rat (DS line); details: 50 mg/kg, orally; for Antipyretic activity, .increment. °C.: at peak time
Procedure: Antipyretic Activity Six male DS line rats, 7 weeks old, weighing 200 to 240 g (Nihon Clea) per one group were used. According to the method of Winder et al. (J. Pharmac. Exp. Ther. 138: 405 (1963)), a suspension of 15% brewer's yeast (Sigma) in physiological saline (1 ml/100 g, b.w.) was injected subcutaneously at 16 hours before measurement of the body temperature to induce pyrexia. After injection of yeast, only water was provided, and each rat was bred separately in a five duplicate cage. At 16, 17 and 18 hours after yeast injection, the rectal temperature was measured by a thermistor thermometer (Takara Kogyo K.K.), and this was taken as the basal body temperature. […] Animals having the body temperature of not lower than 38.5° C. at 18 hours after yeast injection were selected, and a test compound was administered orally (1 ml/100 g, b.w.). As a control, only the solvent was provided. Upon administration, the body temperature of the control group and that of the test compound-administered group were adjusted to the same temperature. The rectal temperature was measured every hour till five hours after administration.

[4] = tested on: ART (antigen-responding T-cell); test: In vitro ART (antigen-responding T-cell) proliferation test; format: cell-based, Lewis rat; details: Rattus norvegicus, T-cell, read-out: % Inhibition of ART growth

Structure (SMILES) | IC50 (cyclooxygenase) | inhibition in vivo at 50 mg/kg [1] | inhibition in vivo at 50 mg/kg [2] | Antipyretic activity, peak time [3] | Antipyretic activity, .increment. °C. [3] | inhibition at 1 µM [4] | inhibition at 10 µM [4] | Inhibitory percentage (carrageenin pedal edema) [1] | Antipyretic activity, .increment. °C. ([3]; hydrochloride) | Antipyretic activity, peak time ([3]; hydrochloride)
O=C(NCCCSc1ccncc1)c1cccs1 [Example 46, 4-[3-(2-thenoylamino)propylthio]pyridine] | 7.9 µM | 39% | 66% | 4 h | -4.08 °C |  |  |  |  | 
O=C(NCCCSc1ccncc1)c1ccncc1 [Example 43, 4-[3-(4-picolynoylamino)propylthio]pyridine] | 13 µM | 24% | 48% |  |  |  |  |  |  | 
Cl.O=C1c2ccccc2C(=O)N1COc1ccncc1 [Example 116, 4-phthalimidomethyloxypyridine hydrochloride] |  |  |  | 3 h | -0.63 °C | 10% | 31% | 45% |  | 
CNC(=O)c1ccccc1C(=O)NCSc1ccncc1 [Example 112, 4-[(2-methylcarbamoylbenzoyl)aminomethylthio]pyridine] | 13 µM | 42% |  | 3 h | -1.58 °C |  |  |  |  | 
O=C(Cc1cccs1)NCCCSc1ccncc1 [Example 55, 4-[3-(2-thienylacetylamino)propylthio]pyridine] | 8.7 µM | 41% | 58% |  |  |  |  |  |  | 
CC(=O)N(CCCSc1ccncc1)Cc1cccs1 [Example 90] | 4.9 µM | 21% | 53% |  |  | 34% | 49% |  |  | 
Cl.O=C1c2ccccc2C(=O)N1CCCOc1ccncc1 [Example 113, 4-(3-phthalimidopropyloxy)pyridine hydrochloride] |  | 35% |  | 4 h | -0.82 °C |  |  |  |  | 
O=C(NCCCSc1ccccn1)c1cccs1 [Example 47, 2-[3-(thenoylamino)propylthio]pyridine] |  | 25% | 47% |  |  |  |  |  |  | 
O=C(NCCCSc1ccncc1)c1cc2ccccc2s1 [Example 57, 4-[3-(thianaphtene-2-carbonylamino)propylthio]pyridine] | 3.6 µM | 35% | 71% | 4 h | -1.28 °C |  |  |  |  | 
O=C1c2ccccc2C(=O)N1CSc1cccnc1 [Example 63, 3-(phthalimidomethylthio)pyridine] |  | 34% | 56% |  |  |  |  |  |  | 
O=C1c2ccccc2CN1CCCOc1ccncc1 [Example 101, 4-[3-(isoindolin-1-on-2-yl)propyloxy]pyridine] | 3.2 µM | 26% | 66% |  |  | 39% | 12% |  |  | 
O=C(NCCCSc1ccncc1)c1cc(Br)c(Br)s1 [Example 58, 4-[3-(4,5-dibromothenoylamino)propylthio]pyridine] | 7.9 µM | 48% | 34% |  |  |  |  |  |  | 
O=C(NCCCSc1ccncc1)c1ccsc1 [Example 54, 4-[3-(3-thiophenecarbonylamino)propylthio]pyridine] | 9 µM | 45% | 58% | 5 h | -3.50 °C |  |  |  |  | 
O=C1c2ccccc2C(=O)N1COc1ccncc1 [Example 65, 4-(phthalimidomethyloxy)pyridine] |  | 39% | 80% | 4 h | -0.62 °C |  |  |  |  | 
Cc1ccc(C(=O)NCCCSc2ccncc2)s1 [Example 59, 4-[3-(5-methylthenoylamino)propylthio]pyridine] | 3.5 µM | 35% | 49% |  |  |  |  |  |  | 
O=C1c2ccccc2CN1CCSc1ccncc1 [Example 105, 4-[2-(isoindolin-1-on-2-yl)ethylthio]pyridine] | 5.1 µM | 31% | 59% |  |  | -4% | -49% |  |  | 
O=C(NCCCSc1ccncc1)c1ccccn1 [Example 42, 4-[3-(2-picolynoylamino)propylthio]pyridine] | 13.1 µM | 34% | 51% | 1 h | -0.80 °C |  |  |  |  | 
O=C(N(CCCSc1ccncc1)Cc1cccs1)C(F)(F)F [Example 68, 4-[3-[N-(2-thienylmethyl)-N-trifluoroacetylamino]propylthio]pyridine hydrochloride] |  | 23% | 50% |  |  |  |  |  |  | 
O=C1c2ccccc2C(=O)N1CCCCOc1ccncc1 [Example 114, 4-(4-phthalimidobutyloxy)pyridine hydrochloride] |  | 28% |  |  |  |  |  |  | -1.14 °C | 4 h
COc1cc(OC)cc(C(=O)NCCCSc2ccncc2)c1 [Example 33, 4-[3-(3,5-dimethoxybenzoylamino)propylthio]pyridine] | 2.8 µM | 37% |  |  |  | 33% | 46% |  |  | 
Cl.Cl.O=C(NCCCOc1ccncc1)c1ccccn1 [Example 126, 4-[3-(2-picolinoylamino)propyloxy]pyridine dihydrochloride] |  | 30% |  | 2 h | -1.21 °C |  |  |  |  | 
